# In patent US9046767B2, “Photoacid generator, photoresist, coated substrate, and method of forming an electronic device” (ROHM AND HAAS ELECTRONIC MATERIALS LLC, priority 2013, dated 2015):
# Assay: Solubility evaluation of photoacid generators in organic solvents
# Type: physicochemical
# Details: 2 weight percent, room temperature; for Solubility in 2-Heptanone: solvent 2-Heptanone; for Solubility in PGMEA: solvent PGMEA; for Solubility in 2-Hepanone/n-Butyl Propionate (1:1 w/w): solvent blend 1:1 w/w; for Solubility in n-Butyl Acetate: solvent n-Butyl Acetate
# Experimental: The photoacid generators were evaluated for solubility in a selection of organic solvents. Solubility of each of the compounds PAG-2, PAG-A1, PAG-A2 were obtained for attempts to completely dissolve the PAG at 2 weight percent at room temperature in different organic solvents and solvent blends. The results for the solubility tests (i.e., where the PAG is observed to be completely soluble in the solvent, or is only partially soluble or insoluble based on the presence of insoluble material) are shown in Table 1, where “O” indicates solubility at 2 weight percent, and “X” indicates partial solubility or insolubility at 2 weight percent.
Compound,Solubility in 2-Heptanone,Solubility in PGMEA,Solubility in 2-Hepanone/n-Butyl Propionate (1:1 w/w),Solubility in n-Butyl Acetate
"4-(2-oxo-2-(2,2,2′,2′-tetramethyl-4,4′-bis(1,3-dioxolan)-5-yl-methoxyethoxy)phenyl)diphenylsulfonium 1-adamantyl-3,3,4,4-tetrafluorobutane sulfonate [PAG-A1]",◯,◯,◯,◯
"CC1(C)OCC(C2OC(C)(C)OC2COC(=O)COc2ccc([S+](c3ccccc3)c3ccccc3)cc2)O1.O=C(OCC12CC3CC(CC(O)(C3)C1)C2)C(F)(F)S(=O)(=O)[O-] (stereo not drawn) [PAG-A2, 4-(2-oxo-2-(2,2,2′,2′-tetramethyl-4,4′-bis(1,3-dioxolan)-5-yl-methoxyethoxy)phenyl)diphenylsulfonium 1,1-difluoro-2-(3-hydroxyadamantan-1-yl-methoxy)-2-oxoethanesulfonate]",◯,◯,◯,◯
"Triphenylsulfonium 1,1-difluoro-2-((-3-hydroxyadamantan-1-yl)methoxy)-2-oxoethanesulfonate [C. PAG 2, reference compound]",X (“X” indicates partial solubility or insolubility at 2 weight percent),X (“X” indicates partial solubility or insolubility at 2 weight percent),X (“X” indicates partial solubility or insolubility at 2 weight percent),X (“X” indicates partial solubility or insolubility at 2 weight percent)
